From ChEMBL document CHEMBL1201862, “PubChem BioAssay data set” (2004)
Values belong to the molecule of their own block, whether it stands above or below them. The source made the active and inactive calls.

Legend:
INS1 = assay: beta cell apoptosis inhibitors, cytokine rescue, dose response, luminescence, retest (AID 449756); format: functional, cell-based; settings: Rattus norvegicus;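 further: cell death triggered by IL-1 beta plus TNF-alpha plus IFN-gamma mixture; protective hits raise ATP signal compared with cytokine alone wells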
[1] = cytotoxicity toward NIH3T3 fibroblasts, dose response, counter-screen, cell-based, ATP luminescence, mouse fibroblasts (AID 2010); format: functional;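 further: cells exposed to compound for about 90 hours before reading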
[2] = inhibitors of intracellular T. cruzi replication, confirmation, NIH3T3 host cells, beta-gal luminescence (AID 2044); format: functional, cell-based;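 further: intracellular parasites grown in NIH/3T3 mouse fibroblasts as host cells; luminescent beta-galactosidase reporter signal from transgenic T. cruzi replicating inside host cells; inhibitors lower the luminescence signal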
Cytochrome P450 2C9 = Cytochrome P450 2C9 (Homo sapiens, UniProt P11712)
Cytochrome P450 2C9, sequence (P11712 whole entry): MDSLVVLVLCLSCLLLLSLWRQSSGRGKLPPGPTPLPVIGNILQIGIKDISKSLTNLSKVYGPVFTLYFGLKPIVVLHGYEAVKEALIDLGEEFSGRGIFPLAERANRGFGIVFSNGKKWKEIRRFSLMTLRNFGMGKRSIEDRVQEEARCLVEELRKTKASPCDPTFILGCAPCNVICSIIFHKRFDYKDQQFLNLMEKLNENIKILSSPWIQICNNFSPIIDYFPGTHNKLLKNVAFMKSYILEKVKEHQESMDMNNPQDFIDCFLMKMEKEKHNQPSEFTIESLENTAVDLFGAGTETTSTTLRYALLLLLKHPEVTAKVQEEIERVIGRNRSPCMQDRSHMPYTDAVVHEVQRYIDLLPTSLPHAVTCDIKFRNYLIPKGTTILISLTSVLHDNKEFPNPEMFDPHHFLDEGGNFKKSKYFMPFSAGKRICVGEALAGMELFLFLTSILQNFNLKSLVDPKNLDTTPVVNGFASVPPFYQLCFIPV

[3] = target: T1, Heat shock factor protein 1 (Mus musculus, UniProt P38532); assay: inhibition of MG132-induced HSE-luciferase signal, confirmation, cell-based, NIH3T3, luminescence, dose retest (AID 2382); format: functional;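 further: NIH3T3 fibroblasts with HSF1-driven luciferase reporter stressed by proteasome inhibitor MG132; luminescence from HSF1-driven luciferase expression after 8 hours of MG132 stress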
T1 sequence (P38532 whole entry): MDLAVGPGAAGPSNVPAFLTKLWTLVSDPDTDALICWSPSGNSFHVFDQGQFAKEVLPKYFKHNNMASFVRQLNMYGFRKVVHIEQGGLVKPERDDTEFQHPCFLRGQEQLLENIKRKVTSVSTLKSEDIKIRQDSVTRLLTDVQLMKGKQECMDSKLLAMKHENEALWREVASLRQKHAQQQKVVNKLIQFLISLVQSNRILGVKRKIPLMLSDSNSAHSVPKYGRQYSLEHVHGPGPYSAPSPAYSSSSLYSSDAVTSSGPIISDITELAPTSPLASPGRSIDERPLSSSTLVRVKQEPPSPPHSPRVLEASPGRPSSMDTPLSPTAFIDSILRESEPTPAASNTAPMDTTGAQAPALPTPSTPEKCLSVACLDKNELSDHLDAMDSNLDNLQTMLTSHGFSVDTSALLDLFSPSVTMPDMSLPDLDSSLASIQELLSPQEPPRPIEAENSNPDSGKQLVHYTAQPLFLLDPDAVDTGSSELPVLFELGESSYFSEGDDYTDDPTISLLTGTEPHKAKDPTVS

[4] = target: T2, Rac GTPase-activating protein 1 (Homo sapiens, UniProt Q9H0H5); assay: MgcRacGAP GTPase-activating activity inhibitors, confirmation, biochemical, ADP Hunter fluorescence, primary and confirmatory (AID 624330); format: functional
T2 sequence (Q9H0H5 whole entry): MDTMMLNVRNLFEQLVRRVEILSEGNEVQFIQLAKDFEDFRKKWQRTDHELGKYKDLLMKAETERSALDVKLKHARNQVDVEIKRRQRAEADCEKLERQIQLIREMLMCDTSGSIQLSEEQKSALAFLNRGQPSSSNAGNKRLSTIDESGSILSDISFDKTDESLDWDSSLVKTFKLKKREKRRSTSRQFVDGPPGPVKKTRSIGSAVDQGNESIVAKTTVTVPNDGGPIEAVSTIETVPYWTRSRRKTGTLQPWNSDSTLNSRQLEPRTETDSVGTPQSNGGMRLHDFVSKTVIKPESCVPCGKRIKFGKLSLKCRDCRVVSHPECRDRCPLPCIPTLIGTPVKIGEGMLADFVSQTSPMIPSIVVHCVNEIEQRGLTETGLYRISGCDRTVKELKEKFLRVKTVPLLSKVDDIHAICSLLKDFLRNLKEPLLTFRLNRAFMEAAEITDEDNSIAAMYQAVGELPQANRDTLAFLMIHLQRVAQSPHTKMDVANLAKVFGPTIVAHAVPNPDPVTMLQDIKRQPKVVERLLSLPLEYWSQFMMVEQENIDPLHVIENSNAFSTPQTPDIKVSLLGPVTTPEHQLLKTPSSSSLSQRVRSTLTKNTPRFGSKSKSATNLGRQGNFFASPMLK

[5] = HEp-2 cell cytotoxicity, dose response, cytotoxicity control for RSV inhibitor project, HTS (AID 2410); format: functional; settings: human respiratory syncytial virus
Cytochrome P450 3A4 = Cytochrome P450 3A4 (Homo sapiens, UniProt P08684);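 further: CYP3A4 tested as one member of a cytochrome P450 panel screen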
Cytochrome P450 3A4, sequence (P08684 whole entry): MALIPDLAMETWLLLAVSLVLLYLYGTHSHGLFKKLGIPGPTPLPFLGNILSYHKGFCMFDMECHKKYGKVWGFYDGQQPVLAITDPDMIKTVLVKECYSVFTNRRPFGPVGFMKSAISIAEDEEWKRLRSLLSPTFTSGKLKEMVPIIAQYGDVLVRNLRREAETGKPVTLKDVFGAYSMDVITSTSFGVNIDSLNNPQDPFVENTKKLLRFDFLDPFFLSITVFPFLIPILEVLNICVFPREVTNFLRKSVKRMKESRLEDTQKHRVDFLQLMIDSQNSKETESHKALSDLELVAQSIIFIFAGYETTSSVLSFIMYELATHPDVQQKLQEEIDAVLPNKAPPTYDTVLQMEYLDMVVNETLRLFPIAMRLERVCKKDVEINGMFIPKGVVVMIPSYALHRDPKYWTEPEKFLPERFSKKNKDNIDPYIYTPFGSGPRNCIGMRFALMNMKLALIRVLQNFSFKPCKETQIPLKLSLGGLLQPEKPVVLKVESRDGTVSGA

AC50 (Cytochrome P450 2C9): 7.08 µM (inconclusive)
Compound: Cc1ccc(/C=C/C(=O)NC(=S)Nc2ccccc2C(=O)NC2CCCCC2)cc1

EC50 [3]: > 195 µM (not active)
Compound: CSCCC(NS(=O)(=O)c1cccs1)C(=O)NCc1ccccc1 (stereo unspecified)

EC50 [3]: > 195 µM (not active)
Compound: COc1ccc(CNC(C)CCc2ccccc2)cc1 (stereo unspecified)

AC50 (Cytochrome P450 2C9): 1.58 µM (inconclusive)
Compound: c1csc(CNc2nc(-c3ccc4c(c3)OCO4)nc3ccccc23)c1

AC50 (Cytochrome P450 2C9): 7.94 µM (inconclusive)
Compound: N#CCCn1c(=O)c(-c2ccccc2)nc2cnc(Oc3cccc(Cl)c3)nc21

EC50 [3]: > 195 µM (not active)
Compound: CCOc1ccc(CNC(=O)CCS(=O)(=O)c2ccc3c(c2)oc(=O)n3C)cc1

IC50 [4]: 20.1 µM (active)
Compound: Cc1ccc(CNc2ccc(N3CCOCC3)cc2)s1

IC50 [4]: 119 µM (active)
Compound: CCN(CC)CCNCC(=O)Nc1ccc(Oc2ccccc2)cc1

IC50 [4]: 15.4 µM (active)
Compound: COc1cc(CNc2ccc(N3CCOCC3)cc2)cc(Br)c1OC

EC50 [3]: > 195 µM (not active)
Compound: Cc1nc2ccc(NC(=O)N3CCSCC3)cc2s1

AC50 (Cytochrome P450 2C9): 3.98 µM (inconclusive)
Compound: NCCSCc1ccccc1Cl

EC50 [3]: > 195 µM (not active)
Compound: Cc1cccc(N(C(=O)c2ccco2)C(C(=O)NC2CCCC2)c2cccnc2)c1C (stereo unspecified)

EC50 [3]: 21.1 µM (active)
Compound: Cc1cc2cc(CCNC(=O)C(=O)c3c[nH]c4ccccc34)c(O)nc2cc1C

AC50 (Cytochrome P450 3A4): 25.1 µM (inconclusive)
Compound: Cc1ccccc1-c1nc(N(C)Cc2ccco2)c2ccccc2n1

AC50 (Cytochrome P450 2C9): 15.8 µM (inconclusive)
Compound: C=CCN(CC=C)C(=S)NC(=O)c1ccc(OC)c(Br)c1

AC50 (Cytochrome P450 2C9): 15.8 µM (inconclusive)
Compound: O=C(NNC(=O)c1ccc2c(c1)C(=O)N(C1CCCCC1)C2=O)c1cccnc1

The remaining lines, values behind:

Compound: O=C(NCC#CCSc1nnc(-c2cccc3ccccc23)o1)c1cccs1
AC50 (INS1): 2.51 µM (active)

Compound: CC#CC[N+](C)(C)CCCCCCCC
AC50 (INS1): 28.7 µM (active)

Compound: O=[N+]([O-])c1cc(-c2nnc(Nc3ccccc3)c3ccccc23)ccc1N1CCOCC1
EC50 [1]: > 30 µM (not active)
EC50 [2]: 1.28 µM (active)

Compound: COc1ccc(NCc2ccsc2)cc1
IC50 [4]: 29.6 µM (active)

Compound: Cc1ccc(C)c(NS(=O)(=O)c2cc(C(=O)N3CCc4ccccc4C3)ccc2Cl)c1
EC50 [1]: > 60 µM (not active)
EC50 [2]: 2.06 µM (active)

Compound: CCCNC(=O)c1c(N)n(Cc2ccco2)c2nc3ccccc3nc12
CC50 [5]: 29.8 µM (active)

Compound: Cc1ccc(CN2CCN(Cc3cc4ccccc4o3)CC2CCO)cc1 (stereo unspecified)
EC50 [3]: > 195 µM (not active)

Compound: COc1ccc(C(=O)CSc2nc(C)cc(O)n2)cc1C
EC50 [3]: > 195 µM (not active)

Compound: c1ccc(COc2ccc(OCCN3CCCC3)cc2)cc1
EC50 [1]: 13.1 µM (active)
EC50 [2]: 1.18 µM (active)

Compound: CCN(CC)c1ccc(NC(=O)CSC(=O)c2ccccc2)cc1
IC50 [4]: 83.9 µM (active)

Compound: Cc1cc(/C=C2\C(=N)N3N=C(C(C)C)SC3=NC2=O)c(C)n1Cc1ccccc1
CC50 [5]: 21.5 µM (active)

Compound: CC1CCCN(S(=O)(=O)c2ccc(NC(=O)c3cccc(-n4cnnn4)c3)cc2)C1 (stereo unspecified)
CC50 [5]: 16.4 µM (active)

Compound: Cc1nn2c(SCC(=O)c3cccs3)cc(C(C)(C)C)nc2c1-c1ccccc1
EC50 [1]: > 60 µM (not active)
EC50 [2]: 2.66 µM (active)

Compound: Cc1ccccc1C1c2[nH]c3ccccc3c2CCN1Cc1cccn1-c1ncccn1 (stereo unspecified)
EC50 [1]: > 60 µM (not active)
EC50 [2]: 1.26 µM (active)

Compound: COc1ccc(Oc2ncc3nc(-c4ccc(Cl)cc4)c(=O)n(CCC#N)c3n2)cc1
AC50 (Cytochrome P450 2C9): 7.94 µM (inconclusive)

Compound: CC(C)CC(C(=O)Nc1cccc(O)c1)N1C(=O)c2ccccc2C1=O (stereo unspecified)
EC50 [3]: > 195 µM (not active)

Compound: O=S(=O)(N1CCCCC1)N1CCN(CC(O)COc2ccc3cc(Br)ccc3c2)CC1 (stereo unspecified)
EC50 [1]: > 60 µM (not active)
EC50 [2]: 2.31 µM (active)

Compound: Cc1ccc(-c2nc(Nc3ccc(N4CCOCC4)cc3)c3ccccc3n2)cc1
CC50 [5]: 18.6 µM (active)

Compound: Cc1nc2c(ccc3nc(NC(=O)C(c4ccccc4)c4ccccc4)sc32)s1
CC50 [5]: 5.99 µM (active)
